Assay results reported in publication PMC11960969, “Mdga2 deficiency leads to an aberrant activation of BDNF/TrkB signaling that underlies autism-relevant synaptic and behavioral changes in mice” (PLOS Biology, 2025).

Assays:
[1] = test system: TrkB signaling and synaptic proteins (pTrkB, pAkt, pmTOR, NLGN1, PSD-95, PSD-93); assay: Immunoblotting of TrkB signaling and synaptic proteins in primary neurons treated with ANA-12; format: cell-based, mouse; details: primary neurons from Mdga2+/- and Mdga2-/- mice, 10 μM, 24 h, n = 3
[2] = test system: mice; assay: Three-chamber test (sociability and social novelty); format: in vivo, mouse
Protocol: (§1) Six- to eight-week-old male mice were subjected to various behavioral tests. Mice were allowed to acclimatize in the testing room for 1 h prior to each test. Data were recorded and analyzed using Smart 3.0 video tracking system (Panlab, Harvard Apparatus).
This test was performed as described previously with minor modifications. The apparatus (60 W × 40 D × 22 H cm) has two transparent partitions separating the left, the middle, and the right chambers (20 × 40 cm each), and each partition has a small opening (5 × 5 cm) for access to each chamber. A fixed wire cylinder (8.5 cm diameter) was placed in each of the left and the right chambers. This test consisted of three phases: habituation, sociability test, and social novelty test. During habituation, both left and right cylinders were empty, and tested mice were placed in the center and allowed to explore freely for 10 min. During the sociability test, a gender-matched strange mouse (S1) was enclosed in one empty cylinder, and mice were allowed to freely explore for 10 min. Their time spent sniffing S1 or the other empty cylinder (E) was measured and the sociability preference index (T(S1 − -E)/T(S1 + E): time spent sniffing S1 minus time spent sniffing E over time spent sniffing both S1 and E) was calculated for comparison. During the social novelty test, another gender-matched unfamiliar mouse (S2) was placed into the empty cylinder and mice were allowed to freely explore for another 10 min. Their time spent sniffing S1 or S2 was measured and the social novelty preference index (T(S2 − S1)/T(S2 + S1): time spent sniffing S2 minus time spent sniffing S1 over time spent sniffing both S2 and S1) was calculated for comparison.

[3] = test system: mice; assay: Novel location recognition (NLR) test; format: in vivo, mouse
Protocol: as §1
This test consists of habituation, training, and testing phases. Mice were first put into the open field apparatus described above for 10 min habituation. During the training phase, mice were allowed to freely explore two identical objects placed near two opposite corners of the open field arena for 8 min. Twenty-four hour later, one of the objects was moved to be close to a third corner (N: Novel location) while the other one was kept in the same spatial position (F: Familiar location). Mice were then tested for their exploration behavior with these objects for 8 min. The discrimination index (T(N − F)/T(N + F): time spent exploring the novel location minus time spent in familiar location over time spent to both novel and familiar location) was calculated to assess the recognition memory of mice.

[4] = test system: mice; assay: Self-grooming test; format: in vivo, mouse; details: Mdga2+/- mice, chronic 0.5 mg/kg i.p.; Test 1 Interaction F(1,56) = 0.1344, p = 0.7153; Test 2 F(1,56) = 0.2389, p = 0.6269
Protocol: as §1
Tested mice were placed individually in a clean cage with fresh bedding. After 5 min of habituation, the spontaneous behaviors of mice were recorded for 30 min and their self-grooming behavior was analyzed.

[5] = test system: AMPAR and NMDAR (evoked EPSCs); assay: Evoked AMPAR- and NMDAR-mediated EPSCs and AMPAR/NMDAR ratio in hippocampal slices; design: species or system mouse

O=C(Nc1ccccc1C(=O)NC1CCCCNC1=O)c1cc2ccccc2s1 (centres unmarked) [ANA-12, reference compound]
increased levels of pTrkB, pAkt, pmTOR, NLGN1, PSD-95, and PSD-93 [1]: effectively reversed increased levels of pTrkB, pAkt, pmTOR, NLGN1, PSD-95, and PSD-93 | impaired sociability and social novelty deficits (three-chamber) ([2]; AAV-Mdga2 shRNA mice, ANA-12 0.5 mg/kg i.p. twice per week 3 weeks, n = 10, Fig 6D): rescued impaired sociability and social novelty deficits | sociability preference ([2]; Mdga2+/- mice, acute 0.5 mg/kg i.p. 3 days, acute Test 1: Interaction F(1,56) = 9.336, p = 0.0034): significantly higher sociability preference when compared to controls in acute Test 1 | impaired sociability and social novelty ([2]; Mdga2+/- mice, chronic 0.5 mg/kg i.p., chronic Test 1, sociability F(1,56) = 13.52, p = 0.0005, novelty F(1,56) = 3.144, p = 0.0817): significantly improved impaired sociability and social novelty | impaired sociability ([2]; Mdga2+/- mice, chronic 0.5 mg/kg i.p., chronic Test 2, Interaction F(1,56) = 7.339, p = 0.0089): significantly improved impaired sociability in Mdga2^ +/− mice in chronic Test 2 | impaired recognition memory ([3]; AAV-Mdga2 shRNA mice, S6C and S6G Fig): neither ANA-12 nor the MDGA2-P2 peptide had effect on rescuing impaired recognition memory | impaired cognitive function ([3]; Mdga2+/- mice, acute 0.5 mg/kg i.p. 3 days, Test 1 Interaction F(1,56) = 3.941, p = 0.0520, Test 2 F(1,56) = 0.9635, p = 0.3305): nor did it attenuate impaired cognitive function | recognition memory ([3]; Mdga2+/- mice, chronic 0.5 mg/kg i.p. twice per week 3 weeks, Test 1 Interaction F(1,56) = 0.6210, p = 0.4340, Test 2 F(1,56) = 0.7506, p = 0.3900): did not affect the locomotor activity (Fig 5B) or recognition memory | repetitive self-grooming behavior [4]: no rescuing effect on repetitive self-grooming behavior | elevated AMPAR/NMDAR response ratios [5]: effectively attenuated upon chronic ANA-12 treatment | elevated evoked AMPAR-mediated EPSCs ([5]; Mdga2+/- mice, chronic 0.5 mg/kg i.p., n = 20-21 cells from 3 mice, Fig 5J): effectively attenuated upon chronic ANA-12 treatment
